Data as given in ChEMBL document CHEMBL5724914, “Linking interpersonal differences in gut microbiota composition and drug biotransformation activity” (2024).

Key:
[1] = human gut metagenome, 24 h, 2 µM
[2] = (§1) The drug is tested on Z-018 corresponding to pig gut metagenome with ENA study accession number: PRJEB37062 and ENA sample accession number: ERS12561817 for biotransformation under anaerobic condition. The drug concentrations were measured over 9 timepoints collected between 0 and 24 hours of incubation by liquid-chromatography-coupled mass spectrometry (LC–MS); settings: 2 µM
[3] = as §1, with “Z-013” for “Z-018”, “rabbit” for “pig”, “ERS12561813” for “ERS12561817”; settings: 2 µM
[4] = as §1, with “Z-017” for “Z-018”, “mouse” for “pig”, “ERS12561816” for “ERS12561817”; settings: 2 µM
[5] = as §1, with “WLS-098” for “Z-018”, “human” for “pig”, “ERS12561754” for “ERS12561817”; settings: 2 µM
[6] = as §1, with “WLS-077” for “Z-018”, “human” for “pig”, “ERS12561750” for “ERS12561817”; settings: 2 µM
[7] = as §1, with “Z-006” for “Z-018”, “mouse” for “pig”, “ERS12561806” for “ERS12561817”; settings: 2 µM
[8] = as §1, with “Z-021” for “Z-018”, “to” for “to pig gut”, “ERS12561820” for “ERS12561817”; settings: 2 µM
[9] = human gut metagenome, 24 h, 2 µM; remark: listed apart in the source
[10] = as §1, with “Z-008” for “Z-018”, “to” for “to pig gut”, “ERS12561808” for “ERS12561817”; settings: 2 µM
[11] = human gut metagenome, 24 h, 2 µM; remark: listed apart in the source
[12] = as §1, with “Z-012” for “Z-018”, “to” for “to pig gut”, “ERS12561812” for “ERS12561817”; settings: 2 µM
[13] = human gut metagenome, 24 h, 2 µM; remark: listed apart in the source
[14] = human gut metagenome, 24 h, 2 µM; remark: listed apart in the source
[15] = human gut metagenome, 24 h, 2 µM; remark: listed apart in the source
[16] = human gut metagenome, 24 h, 2 µM; remark: listed apart in the source
[17] = human gut metagenome, 24 h, 2 µM; remark: listed apart in the source
[18] = as §1, with “Z-025” for “Z-018”, “rabbit” for “pig”, “ERS12561824” for “ERS12561817”; settings: 2 µM
[19] = human gut metagenome, 24 h, 2 µM; remark: listed apart in the source
[20] = as §1, with “WLS-007” for “Z-018”, “human” for “pig”, “ERS12561742” for “ERS12561817”; settings: 2 µM
Further: call rule not given here.

SMILES	Bacterial Biotransformation [1]	Bacterial Biotransformation [2]	Bacterial Biotransformation [3]	Bacterial Biotransformation [4]	Bacterial Biotransformation [5]	Bacterial Biotransformation [6]	Bacterial Biotransformation [7]	Bacterial Biotransformation [8]	Bacterial Biotransformation [9]	Bacterial Biotransformation [10]	Bacterial Biotransformation [11]	Bacterial Biotransformation [12]	Bacterial Biotransformation [13]	Bacterial Biotransformation [14]	Bacterial Biotransformation [15]	Bacterial Biotransformation [16]	Bacterial Biotransformation [17]	Bacterial Biotransformation [18]	Bacterial Biotransformation [19]	Bacterial Biotransformation [20]
CCN1CCCC1CNC(=O)c1cc(S(N)(=O)=O)ccc1OC (stereo not given) [SULPIRIDE]	Compound NOT metabolized	Compound metabolized	Compound NOT metabolized	Compound NOT metabolized	Compound metabolized	Compound metabolized	Compound NOT metabolized	Compound NOT metabolized	Compound metabolized	Compound NOT metabolized	Compound NOT metabolized	Compound NOT metabolized	Compound metabolized	Compound NOT metabolized	Compound NOT metabolized	Compound NOT metabolized	Compound NOT metabolized	Compound NOT metabolized	Compound NOT metabolized	Compound NOT metabolized
COc1cc2nc(N3CCN(C(=O)c4ccco4)CC3)nc(N)c2cc1OC [PRAZOSIN]	Compound NOT metabolized	Compound NOT metabolized	Compound NOT metabolized	Compound NOT metabolized	Compound metabolized	Compound NOT metabolized	Compound NOT metabolized	Compound NOT metabolized	Compound NOT metabolized	Compound NOT metabolized	Compound NOT metabolized	Compound NOT metabolized	Compound metabolized	Compound NOT metabolized	Compound metabolized	Compound NOT metabolized	Compound metabolized	Compound NOT metabolized	Compound NOT metabolized	Compound NOT metabolized
CNC(=C[N+](=O)[O-])NCCSCc1ccc(CN(C)C)o1 [RANITIDINE]	Compound metabolized	Compound metabolized	Compound NOT metabolized	Compound metabolized	Compound NOT metabolized	Compound NOT metabolized	Compound metabolized	Compound NOT metabolized	Compound metabolized	Compound NOT metabolized	Compound metabolized	Compound metabolized	Compound NOT metabolized	Compound NOT metabolized	Compound metabolized	Compound NOT metabolized	Compound NOT metabolized	Compound NOT metabolized	Compound metabolized	Compound NOT metabolized
Br.CN(C)CCCC1(c2ccc(F)cc2)OCc2cc(C#N)ccc21 (stereo not given) [CITALOPRAM HYDROBROMIDE]	Compound NOT metabolized	Compound NOT metabolized	Compound NOT metabolized	Compound NOT metabolized	Compound metabolized	Compound NOT metabolized	Compound NOT metabolized	Compound NOT metabolized	Compound NOT metabolized	Compound NOT metabolized	Compound NOT metabolized	Compound NOT metabolized	Compound metabolized	Compound metabolized	Compound metabolized	Compound NOT metabolized	Compound metabolized	Compound NOT metabolized	Compound NOT metabolized	Compound NOT metabolized
COc1ccc(CCN(C)CCCC(C#N)(c2ccc(OC)c(OC)c2)C(C)C)cc1OC (stereo not given)	Compound NOT metabolized	Compound metabolized	Compound NOT metabolized	Compound NOT metabolized	Compound metabolized	Compound NOT metabolized	Compound NOT metabolized	Compound NOT metabolized	Compound NOT metabolized	Compound NOT metabolized	Compound metabolized	Compound metabolized	Compound metabolized	Compound metabolized	Compound metabolized	Compound NOT metabolized	Compound metabolized	Compound NOT metabolized	Compound NOT metabolized	Compound metabolized
CC(C)(Oc1ccc(CCNC(=O)c2ccc(Cl)cc2)cc1)C(=O)O [BEZAFIBRATE]	Compound NOT metabolized	Compound NOT metabolized	Compound metabolized	Compound NOT metabolized	Compound metabolized	Compound metabolized	Compound NOT metabolized	Compound metabolized	Compound metabolized	Compound NOT metabolized	Compound metabolized	Compound NOT metabolized	Compound metabolized	Compound metabolized	Compound metabolized	Compound NOT metabolized	Compound metabolized	Compound NOT metabolized	Compound metabolized	Compound metabolized
Cc1nc(-c2ccc(OCC(C)C)c(C#N)c2)sc1C(=O)O [FEBUXOSTAT]	Compound metabolized	Compound metabolized	Compound NOT metabolized	Compound NOT metabolized	Compound metabolized	Compound metabolized	Compound NOT metabolized	Compound metabolized	Compound metabolized	Compound NOT metabolized	Compound metabolized	Compound NOT metabolized	Compound metabolized	Compound metabolized	Compound metabolized	Compound NOT metabolized	Compound metabolized	Compound NOT metabolized	Compound NOT metabolized	Compound NOT metabolized
